Measured values reported in patent publication US20080305958A1, “Process for Liquid or gas Chromatography/Mass Spectrometry Based Biomolecular Screening for Drug Discovery” (priority 2004, published 2008).

Target: T1, M CPT-I (Homo sapiens, UniProt Q92523)
T1 sequence (Q92523 1-772): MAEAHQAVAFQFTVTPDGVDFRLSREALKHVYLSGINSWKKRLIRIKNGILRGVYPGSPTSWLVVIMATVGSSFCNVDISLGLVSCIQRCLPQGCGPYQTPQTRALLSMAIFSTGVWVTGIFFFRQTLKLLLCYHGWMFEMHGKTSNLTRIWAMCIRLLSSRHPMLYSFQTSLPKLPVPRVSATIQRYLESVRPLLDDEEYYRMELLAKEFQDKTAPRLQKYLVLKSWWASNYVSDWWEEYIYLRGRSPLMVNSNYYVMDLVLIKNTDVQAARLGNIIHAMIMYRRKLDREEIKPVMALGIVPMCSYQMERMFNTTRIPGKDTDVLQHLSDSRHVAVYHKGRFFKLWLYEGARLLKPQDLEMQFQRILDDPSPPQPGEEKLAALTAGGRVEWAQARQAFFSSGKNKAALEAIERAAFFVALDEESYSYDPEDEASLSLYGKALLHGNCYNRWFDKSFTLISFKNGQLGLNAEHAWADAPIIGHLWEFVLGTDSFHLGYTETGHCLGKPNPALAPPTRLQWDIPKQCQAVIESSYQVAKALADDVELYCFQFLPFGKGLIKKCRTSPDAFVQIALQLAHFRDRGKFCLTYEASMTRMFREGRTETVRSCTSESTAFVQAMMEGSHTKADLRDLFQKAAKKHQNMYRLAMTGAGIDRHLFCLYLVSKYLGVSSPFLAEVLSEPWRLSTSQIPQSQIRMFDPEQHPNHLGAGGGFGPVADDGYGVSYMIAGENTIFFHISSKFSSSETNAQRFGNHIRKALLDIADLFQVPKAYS
Assay: LC/MS HTS assay, malonyl-CoA inhibition of human MCPT-I (palmitoyl-CoA and carnitine converted to palmitoyl carnitine)
Format: biochemical
Conditions: FIG. 9B
Text: The biological activity used for the assay is the conversion by CPT-1 of palmitoyl-CoA (fatty acid-CoA) and carnitine to palmitoyl carnitine complex and free CoA.
The biological activity used for the assay is the conversion by CPT-1 of palmitoyl-CoA and carnitine to palmitoyl carnitine complex and free CoA.

CC(C)(COP(=O)(O)OP(=O)(O)OC[C@H]1O[C@@H](n2cnc3c(N)ncnc32)[C@H](O)[C@@H]1OP(=O)(O)O)[C@@H](O)C(=O)NCCC(=O)NCCSC(=O)CC(=O)O [Malonyl-CoA]
IC50: 41 nM
